Measurements reported in patent US9328117B2, “Bromodomain inhibitors and uses thereof” (Constellation Pharmaceuticals, Inc., priority 2011, dated 2016).

What was measured:
[1] = biological target: T1, BRD4(BD1) (Homo sapiens, UniProt O60885); test: BRD4 AlphaLisa binding assay; conditions: BRD4(BD1) 30 nM, biotinylated H4-tetraacetyl peptide 200 nM
T1 construct: His; made in house
Experimental: A. IC50 Measurements for Inhibitors Using BRD4 AlphaLisa Binding Assay
His/Flag epitope tagged BRD4 BD142-168 was cloned, expressed and purified to homogeneity. BRD4 binding and inhibition was assessed by monitoring the engagement of biotinylated H4-tetraacetyl peptide (Millipore #12-379) with the target using the AlphaLisa technology (Perkin-Elmer). Specifically, in a 384 well ProxiPlate BRD4(BD1) (30 nM final) was combined with peptide (200 nM final) in 40 mM HEPES (pH 7.0), 40 mM NaCl, 1 mM DTT, 0.01% (w/v) BSA, and 0.008% (w/v) Brij-35 either in the presence of DMSO (final 1.2% DMSO) or compound dilution series in DMSO. After 20 minute incubation at room temperature Alpha streptavidin donor beads and AlphaLisa anti-Flag acceptor beads were added to a final concentration of 10 ug/mL each. After three hours equilibration plates were read on an Envision instrument and IC50s calculated using a four parameter non-linear curve fit.

[2] = tested on: IL-6 secretion in LPS-treated THP-1 cells; test: Cell-based IL-6 quantification assay (ELISA, Mesoscale); conditions: Homo sapiens, LPS 4 μg/mL, 16 h, normalised to CellTiter-Glo
Experimental: C. Cell-Based IL-6 Quantification Assay (ELISA, Mesoscale Assay):
100,000 THP-1 cells were seeded in RPMI1640-10% FBS in 96-well plates. LPS (E. Coli Invitrogen) in RPMI-10% FBS at a final concentration of 4 μg/mL was added to the wells and the cells are then incubated in the presence of various concentrations of compounds for 16 h. Plates are spun ([…], 5 min), an aliquot of 25 uL supernatant is transferred in to an ELISA plate (Mesoscale technology, MSD) and the detection of IL-6 is performed using manufacturer's instructions. The amount of cells in each well is assessed using CellTiter-Glo® (Promega). The ratio of ELISA value/CellTiter-Glo value is used to calculate the percent of inhibition of IL-6 secretion.

[3] = tested on: MYC mRNA in MV4:11 (AML) cells; test: cMyc RNA quantification assay (QuantiGene), MV4:11; format: cell-based; conditions: Homo sapiens; MV4-11 cells, 4 h
Experimental: (§1) B. cMyc RNA quantification assay (QuantiGene® Assay)
(§2) MV4:11 (AML) or Raji (Burkitt lymphoma) cells were seeded in a 96-well plate and incubated in the presence of various concentrations of compounds for 4 h. Relative mRNA levels were quantitated by using QuantiGene 2.0 assay (Affymetrix) according to the manufacturer's recommendation. Signals were detected by using an Envision plate reader (Perkin-Elmer). Biological duplicates were averaged and normalized to vehicle (DMSO) control to calculate percent MYC mRNA levels.

[4] = tested on: MYC mRNA in Raji (Burkitt lymphoma) cells; test: cMyc RNA quantification assay (QuantiGene), Raji; format: cell-based; conditions: Homo sapiens, 4 h
Experimental: as §1, §2

Row | Compound | IC50 [1] [nM] | IC50 [3] [nM] | IC50 [4] [nM] | IC50 [2] [nM]
1 | Cc1nnc2ccc(NC(C)c3ccccc3)nn12 (racemic) [Compound 1, rac-3-methyl-N-(1-phenylethyl)-[1,2,4]triazolo[4,3-b]pyridazin-6-amine] | > 1000 | > 1000 |  | > 1000
2 | Cc1nnc2ccc(N(C)C(C)c3ccccc3)nn12 (stereo not shown) [Compound 2, N,3-dimethyl-N-(1-phenylethyl)-[1,2,4]triazolo[4,3-b]pyridazin-6-amine] | 500 to 1000 |  |  | > 1000
3 | Cc1nnc2ccc(N(C)[C@H](C)c3ccccc3)nn12 [Compound 4, (R)-N,3-dimethyl-N-(1-phenylethyl)-[1,2,4]triazolo[4,3-b]pyridazin-6-amine] | > 1000 |  |  | 
4 | Cc1nnc2c(C(N)=O)cc(N(C)[C@@H](C)c3ccccc3)nn12 [Compound 7, (S)-3-methyl-6-(methyl(1-phenylethyl)amino)-[1,2,4]triazolo[4,3-b]pyridazine-8-carboxamide] | > 1000 |  |  | > 1000
5 | C[C@@H](c1ccccc1)N(C)c1ccc2nnc(C#N)n2n1 [Compound 9, (S)-6-(methyl(1-phenylethyl)amino)-[1,2,4]triazolo[4,3-b]pyridazine-3-carbonitrile] | > 1000 | > 1000 |  | > 1000
6 | Cc1nnc2ccc(N3CCCC3c3ccccc3)nn12 (stereo not shown) [Compound 10, 3-methyl-6-(2-phenylpyrrolidin-1-yl)-[1,2,4]-triazolo[4,3-b]pyridazine] | > 1000 |  |  | 
7 | CCNC(=O)Nc1cc(N(C)[C@@H](C)c2ccccc2)nn2c(C(F)(F)F)nnc12 [Compound 14] | < 500 | < 500 |  | < 500

Second part, led by results:

Row | IC50 [1] [nM] | IC50 [3] [nM] | IC50 [4] [nM] | Compound | IC50 [2] [nM]
8 | < 500 |  |  | Cc1nnc2ccc(N(C)[C@@H](C)c3ccccc3)nn12 [Compound 3, (S)-N,3-dimethyl-N-(1-phenylethyl)-[1,2,4]triazolo[4,3-b]pyridazin-6-amine] | > 1000
9 | < 500 |  | < 500 | CCNC(=O)Nc1cc(N(C)[C@@H](C)c2ccccc2)nn2c(C)nnc12 [Compound 5, (S)-1-ethyl-3-(3-methyl-6-(methyl(1-phenylethyl)amino)-[1,2,4]triazolo[4,3-b]pyridazin-8-yl)urea] | < 500
10 | < 500 |  |  | Cc1nnc2c(N)cc(N(C)[C@@H](C)c3ccccc3)nn12 [Compound 6, (S)-N^6,3-dimethyl-N^6-(1-phenylethyl)-[1,2,4]triazolo[4,3-b]pyridazine-6,8-diamine] | < 500
11 | < 500 |  | > 1000 | Cc1nnc2c(NC(=O)N(C)C)cc(N(C)[C@@H](C)c3ccccc3)nn12 [Compound 8, (S)-1,1-dimethyl-3-(3-methyl-6-(methyl(1-phenylethyl)amino)-[1,2,4]triazolo[4,3-b]pyridazin-8-yl)urea] | 500 to 1000
12 | < 500 |  | < 500 | CCOC(=O)Nc1cc(N(C)[C@@H](C)c2ccccc2)nn2c(C)nnc12 [Compound 11] | < 500
13 | < 500 | < 500 |  | CCNC(=O)Nc1cc(N(C)[C@@H](C)c2ccc(F)cc2)nn2c(C)nnc12 [Compound 12] | < 500
14 | < 500 | < 500 |  | CCNC(=O)Nc1cc(N(C)[C@@H](C)c2ccc(Cl)cc2)nn2c(C)nnc12 [Compound 13] | < 500
